In US10947252B2, “Inhibitors of KEAP1-Nrf2 protein-protein interaction” (Janssen Pharmaceutica NV, priority 2018, dated 2021):

Key:
[1] = molecular target: Kelch domain of human KEAP1 (321-624 aa) (Homo sapiens (Human), UniProt Q14145); test: KEAP1 KELCH ThermoFluor binding assay; conditions: KEAP Kelch […], 1,8-ANS, pH 7.0, average of results obtained, read-out: Tf Kd;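 also: Ligand-induced melting temperature shift of E. coli-expressed KEAP1 Kelch protein, Kd estimated from concentration-response curves of ΔTm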
[2] = test system: Glo-Response ARE-luc2P HEK293 cell line; test: ARE luciferase reporter cell-based assay; conditions: Homo sapiens, HEK293, 24 h, average of results obtained;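 also: luciferase signal tracks Nrf2 activation of the ARE once compounds disrupt KEAP1-Nrf2 binding, read with One-Glo reagent, DMSO serving as low control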
Protocol: The ARE assay utilizes a luciferase reporter cell line where the signal is proportional to NrF2 activation of the ARE. The cell line is commercially available from Promega and was prepared by stably transfecting HEK293 cells with a vector (pGL4.11) which contains the ARE response element upstream of a minimal promoter. The promoter drives expression of luc2 firefly luciferase gene. Upon disruption of KEAP1-Nrf2 binding by compound, Nrf2 translocates into the nucleus where it binds to the ARE and activates transcription of luciferase.
The materials used in this ARE assay are as follows: Glo-Response ARE-luc2P HEK293 cell line and One-Glo Luciferase Assay System were purchased from Promega (Madison, Wis.). Dulbecco's Modified Eagle medium ((DMEM), low glucose, GlutaMAX, pyruvate), fetal bovine serum (certified, heat inactivated), hygromycin B, Dulbecco's phosphate-buffered saline were purchased from Life Technologies (Grand Island, N.Y.). Penicillin, streptomycin solution (100×) and 0.05% trypsin-EDTA were purchased from Corning (Manassas, Va.). DMSO was purchased from EMD Millipore.
The ARE assay protocol is as follows: cells were maintained in growth medium (DMEM+10% FBS, 200 μg/mL hygromycin B, p-s) between 20-90% confluency by splitting twice per week. One day before the assay, cells were trypsinized, counted to determine viable cell count, and re-suspended in assay medium (DMEM+10% FBS, p-s) at 250,000 cells/mL. […] 100% DMSO was used as the low control. A 11-point dose series of the control compound was included on every plate. Compounds were spotted to an intermediate plate (Greiner #781280 V-bottom 384 well plate) using the Echo acoustic dispenser (Labscyte San Jose, Calif.). Spot size was 240 nL.
On the day of the assay, 60 mL per well of assay medium was added to the pre-spotted plate to make 2× compound stocks using the Combi (Thermo Waltham, Mass.). Compound and medium were mixed on the Janus and 20 mL of 2×compound stock was added to the cell plate which already contained 20 mL of assay medium from cell plating. […] The plates were returned to the tissue culture incubator for 24 hours.
The next day, luciferase activity was measured according to the manufacturer's protocol for One-Glo luciferase reagent. The plates were removed from the incubator and allowed to equilibrate to room temperature for 30 min. Forty microliters of One-Glo reagent (equilibrated to room temperature) was added per well using the Combi. The plates were mixed on an orbital shaker for 3 min. Luminescence was read on the BMG Pherastar multiplate reader (Cary, N.C.) using the luminescence protocol (1 sec interval).
The dose-response data were analyzed in Genedata Screener using 4PL nonlinear regression model. Raw luminescence counts as well as normalized values were used for data analysis.

Kelch domain of human KEAP1 (321-624 aa), sequence (Q14145 321-624): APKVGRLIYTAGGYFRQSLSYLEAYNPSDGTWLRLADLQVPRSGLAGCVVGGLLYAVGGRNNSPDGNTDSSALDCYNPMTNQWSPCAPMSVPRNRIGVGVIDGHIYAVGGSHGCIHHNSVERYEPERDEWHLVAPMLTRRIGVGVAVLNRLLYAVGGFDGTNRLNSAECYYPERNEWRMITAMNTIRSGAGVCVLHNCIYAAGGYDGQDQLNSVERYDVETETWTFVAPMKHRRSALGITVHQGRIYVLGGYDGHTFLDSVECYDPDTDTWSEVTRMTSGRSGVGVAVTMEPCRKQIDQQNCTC

Row | SMILES | Kd [1] | EC50 [2]
1 | Cc1ccc([C@@H](CC(=O)O)c2ccn3c(C(F)F)nnc3c2C)cc1CN1CC2(CC2)Oc2ncc(C(N)=O)cc2S1(=O)=O (single isomer, unassigned) [Example 553, (*R)-3-(3-((8′-Carbamoyl-1′,1′-dioxidospiro[cyclopropane-1,4′-pyrido[2,3-b][1,4,5]oxathiazepin]-2′(3′H)-yl)methyl)-4-methylphenyl)-3-(3-(difluoromethyl)-8-methyl-[1,2,4]triazolo[4,3-a]pyridin-7-yl)propanoic Acid] | 769 nM | > 20000 nM
2 | CCn1nnc2c(C)c([C@@H](c3ccc(C)c(CN4CC5(CCOCC5)Oc5ncccc5S4(=O)=O)n3)C(C)(C)C(=O)O)ccc21 (single isomer, unassigned) [Example 556, (*R)-3-(6-((1′,1′-Dioxido-2,3,5,6-tetrahydrospiro[pyran-4,4′-pyrido[2,3-b][1,4,5]oxathiazepin]-2′(3′H)-yl)methyl)-5-methylpyridin-2-yl)-3-(1-ethyl-4-methyl-1H-benzo[d][1,2,3]triazol-5-yl)-2,2-dimethylpropanoic Acid] | 4940 nM | 1750 nM
3 | CCn1nnc2c(C)c([C@@H](c3ccc(C)c(CN4CC5(CCOCC5)Oc5ncc(C)cc5S4(=O)=O)n3)C(C)(C)C(=O)O)ccc21 (single isomer, unassigned) [Example 558, (*R)-3-(1-Ethyl-4-methyl-1H-benzo[d][1,2,3]triazol-5-yl)-2,2-dimethyl-3-(5-methyl-6-((8′-methyl-1′,1′-dioxido-2,3,5,6-tetrahydrospiro[pyran-4,4′-pyrido[2,3-b][1,4,5]oxathiazepin]-2′(3′H)-yl)methyl)pyridin-2-yl)propanoic Acid] | 343 nM | 195 nM
4 | Cc1ncc([C@H](CC(=O)O)c2ccn3c(C(F)(F)F)nnc3c2C)cc1CN1CC2(CCOCC2)Oc2ncccc2S1(=O)=O (single isomer, unassigned) [Example 564, (*R)-3-(5-((1′,1′-Dioxido-2,3,5,6-tetrahydrospiro[pyran-4,4′-pyrido[2,3-b][1,4,5]oxathiazepin]-2′(3′H)-yl)methyl)-6-methylpyridin-3-yl)-3-(8-methyl-3-(trifluoromethyl)-[1,2,4]triazolo[4,3-a]pyridin-7-yl)propanoic Acid] | 323 nM | > 20000 nM
5 | Cc1cnc2c(c1)S(=O)(=O)N(Cc1cc([C@H](CC(=O)O)c3ccn4c(C(F)(F)F)nnc4c3C)cnc1C)CC1(CC1)O2 (single isomer, unassigned) [Example 565, (*R)-3-(8-Methyl-3-(trifluoromethyl)-[1,2,4]triazolo[4,3-a]pyridin-7-yl)-3-(6-methyl-5-((8′-methyl-1′,1′-dioxidospiro[cyclopropane-1,4′-pyrido[2,3-b][1,4,5]oxathiazepin]-2′(3′H)-yl)methyl)pyridin-3-yl)propanoic Acid] | 59.4 nM | > 20000 nM
6 | Cc1ncc([C@@H](c2ccn3c(C(F)(F)F)nnc3c2C)C(C)(C)C(=O)O)cc1CN1CC2(CCOCC2)Oc2ncccc2S1(=O)=O (single isomer, unassigned) [Example 571, (*R)-3-(5-((1′,1′-dioxido-2,3,5,6-tetrahydrospiro[pyran-4,4′-pyrido[2,3-b][1,4,5]oxathiazepin]-2′(3′H)-yl)methyl)-6-methylpyridin-3-yl)-2,2-dimethyl-3-(8-methyl-3-(trifluoromethyl)-[1,2,4]triazolo[4,3-a]pyridin-7-yl)propanoic Acid] | 5850 nM | > 20000 nM
7 | Cc1cnc2c(c1)S(=O)(=O)N(Cc1cc([C@H](c3ccn4c(C(F)F)nnc4c3C)C(C)(C)C(=O)O)ccc1C)CC1(CCOCC1)O2 (single isomer, unassigned) [Example 577, (*R)-3-(3-(Difluoromethyl)-8-methyl-[1,2,4]triazolo[4,3-a]pyridin-7-yl)-2,2-dimethyl-3-(4-methyl-3-((8′-methyl-1′,1′-dioxido-2,3,5,6-tetrahydrospiro[pyran-4,4′-pyrido[2,3-b][1,4,5]oxathiazepin]-2′(3′H)-yl)methyl)phenyl)propanoic Acid] | 718 nM | 768 nM

These reach a lower Kd [1]. Values come first.

Row | Kd [1] | SMILES | EC50 [2]
8 | < 1 nM | Cc1ccc([C@H](c2ccn3c(C(F)(F)F)nnc3c2C)[C@H](C)C(=O)O)cc1CN1CC2(CC2)Oc2ncccc2S1(=O)=O (single isomer, unassigned) [Example 554, (2S,3*R)-3-(3-(Trifluoromethyl)-8-methyl-[1,2,4]triazolo[4,3-a]pyridin-7-yl)-3-(3-((1′,1′-dioxidospiro[cyclopropane-1,4′-pyrido[2,3-b][1,4,5]oxathiazepin]-2′(3′H)-yl)methyl)-4-methylphenyl)-2-methylpropanoic Acid] | 181 nM
9 | < 1 nM | CCn1nnc2c(C)c([C@H](c3ccc(C)c(CN4CC5(CCOCC5)Oc5ncccc5S4(=O)=O)n3)C(C)(C)C(=O)O)ccc21 (single isomer, unassigned) [Example 555, (*S)-3-(6-((1′,1′-Dioxido-2,3,5,6-tetrahydrospiro[pyran-4,4′-pyrido[2,3-b][1,4,5]oxathiazepin]-2′(3′H)-yl)methyl)-5-methylpyridin-2-yl)-3-(1-ethyl-4-methyl-1H-benzo[d][1,2,3]triazol-5-yl)-2,2-dimethylpropanoic Acid] | 1.42 nM
10 | < 1 nM | CCn1nnc2c(C)c([C@H](c3ccc(C)c(CN4CC5(CCOCC5)Oc5ncc(C)cc5S4(=O)=O)n3)C(C)(C)C(=O)O)ccc21 (single isomer, unassigned) [Example 557, (*S)-3-(1-Ethyl-4-methyl-1H-benzo[d][1,2,3]triazol-5-yl)-2,2-dimethyl-3-(5-methyl-6-((8′-methyl-1′,1′-dioxido-2,3,5,6-tetrahydrospiro[pyran-4,4′-pyrido[2,3-b][1,4,5]oxathiazepin]-2′(3′H)-yl)methyl)pyridin-2-yl)propanoic Acid] | 0.56 nM
11 | < 1 nM | Cc1cnc2c(c1)S(=O)(=O)N(Cc1cc([C@@H](c3ccn4c(C(F)F)nnc4c3C)C(C)(C)C(=O)O)ccc1C)CC1(CC1)O2 (single isomer, unassigned) [Example 560, (*S)-3-(3-(Difluoromethyl)-8-methyl-[1,2,4]triazolo[4,3-a]pyridin-7-yl)-2,2-dimethyl-3-(4-methyl-3-((8′-methyl-1′,1′-dioxidospiro[cyclopropane-1,4′-pyrido[2,3-b][1,4,5]oxathiazepin]-2′(3′H)-yl)methyl)phenyl)propanoic Acid] | 1.9 nM
12 | 52.5 nM | Cc1cnc2c(c1)S(=O)(=O)N(Cc1cc([C@H](c3ccn4c(C(F)F)nnc4c3C)C(C)(C)C(=O)O)ccc1C)CC1(CC1)O2 (single isomer, unassigned) [Example 561, (*R)-3-(3-(Difluoromethyl)-8-methyl-[1,2,4]triazolo[4,3-a]pyridin-7-yl)-2,2-dimethyl-3-(4-methyl-3-((8′-methyl-1′,1′-dioxidospiro[cyclopropane-1,4′-pyrido[2,3-b][1,4,5]oxathiazepin]-2′(3′H)-yl)methyl)phenyl)propanoic Acid] | 258 nM
13 | 14.8 nM | Cc1ncc([C@@H](CC(=O)O)c2ccn3c(C(F)(F)F)nnc3c2C)cc1CN1CC2(CCOCC2)Oc2ncccc2S1(=O)=O (single isomer, unassigned) [Example 562, (*S)-3-(5-((1′,1′-Dioxido-2,3,5,6-tetrahydrospiro[pyran-4,4′-pyrido[2,3-b][1,4,5]oxathiazepin]-2′(3′H)-yl)methyl)-6-methylpyridin-3-yl)-3-(8-methyl-3-(trifluoromethyl)-[1,2,4]triazolo[4,3-a]pyridin-7-yl)propanoic Acid] | 2490 nM
14 | 21 nM | Cc1cnc2c(c1)S(=O)(=O)N(Cc1cc([C@@H](CC(=O)O)c3ccn4c(C(F)(F)F)nnc4c3C)cnc1C)CC1(CC1)O2 (single isomer, unassigned) [Example 563, (*S)-3-(8-Methyl-3-(trifluoromethyl)-[1,2,4]triazolo[4,3-a]pyridin-7-yl)-3-(6-methyl-5-((8′-methyl-1′,1′-dioxidospiro[cyclopropane-1,4′-pyrido[2,3-b][1,4,5]oxathiazepin]-2′(3′H)-yl)methyl)pyridin-3-yl)propanoic Acid] | > 20000 nM
15 | < 1 nM | Cc1ncc([C@H](c2ccn3c(C(F)(F)F)nnc3c2C)C(C)(C)C(=O)O)cc1CN1CC2(CCOCC2)Oc2ncccc2S1(=O)=O (single isomer, unassigned) [Example 570, (*S)-3-(5-((1′,1′-Dioxido-2,3,5,6-tetrahydrospiro[pyran-4,4′-pyrido[2,3-b][1,4,5]oxathiazepin]-2′(3′H)-yl)methyl)-6-methylpyridin-3-yl)-2,2-dimethyl-3-(8-methyl-3-(trifluoromethyl)-[1,2,4]triazolo[4,3-a]pyridin-7-yl)propanoic Acid] | 1120 nM
16 | < 1 nM | Cc1cnc2c(c1)S(=O)(=O)N(Cc1cc([C@@H](c3ccn4c(C(F)F)nnc4c3C)C(C)(C)C(=O)O)ccc1C)CC1(CCOCC1)O2 (single isomer, unassigned) [Example 576, (*S)-3-(3-(Difluoromethyl)-8-methyl-[1,2,4]triazolo[4,3-a]pyridin-7-yl)-2,2-dimethyl-3-(4-methyl-3-((8′-methyl-1′,1′-dioxido-2,3,5,6-tetrahydrospiro[pyran-4,4′-pyrido[2,3-b][1,4,5]oxathiazepin]-2′(3′H)-yl)methyl)phenyl)propanoic Acid] | 2.34 nM
17 | < 1 nM | Cc1ccc([C@@H](c2ccn3c(C(F)F)nnc3c2C)C(C)(C)C(=O)O)cc1CN1CC2(CCOCC2)Oc2nc(OCCN3CCOCC3)ccc2S1(=O)=O (single isomer, unassigned) [Example 579, (*S)-3-(3-(Difluoromethyl)-8-methyl-[1,2,4]triazolo[4,3-a]pyridin-7-yl)-2,2-dimethyl-3-(4-methyl-3-((7′-(2-morpholinoethoxy)-1′,1′-dioxido-2,3,5,6-tetrahydrospiro[pyran-4,4′-pyrido[2,3-b][1,4,5]oxathiazepin]-2′(3′H)-yl)methyl)phenyl)propanoic Acid] | 27.8 nM
